Experimental data taken from PMC5542402 (Combinatorial chemistry & high throughput screening, 2016).
Like-named read-outs stand apart in the source and are kept apart here.

How the values were obtained:
PhoP [1] = target: T1, PhoP (Mycobacterium tuberculosis, UniProt P71814, D106C); format: binding
PhoP [2] = target: T1, PhoP; format: binding; remark: listed apart in the source

## NCGC00161636
PhoP [1]
  IC50: 15.5 µM

## CCCCCCCCCC(CC)c1ccc(S(=O)(=O)O)cc1 (centres unmarked) [NCGC00244580]
PhoP [2]
  IC50: 35.8 µM
